Measured values reported in paper PMC11350809, “Targeting N-Acetylglucosaminidase in Staphylococcus aureus with Iminosugar Inhibitors” (Antibiotics, 2024).
Converted amounts (≈) assume the structure as drawn. “Also recorded” adds a separate entry of the source. Like-named read-outs stand apart in the source and are kept apart here.

Columns and labels:
autolysin E (AtlE) = autolysin E (AtlE) (Staphylococcus aureus, UniProt A0A0H3JT72); assay: Surface plasmon resonance (SPR) binding to immobilized AtlE; conditions: for maximal SPR response compared with the maximal theoretical response: theoretical response calculated from molecular masses of AtlE and compound, surfactant P20 in running buffer
Chain of autolysin E (AtlE) (A0A0H3JT72 entry or part of it): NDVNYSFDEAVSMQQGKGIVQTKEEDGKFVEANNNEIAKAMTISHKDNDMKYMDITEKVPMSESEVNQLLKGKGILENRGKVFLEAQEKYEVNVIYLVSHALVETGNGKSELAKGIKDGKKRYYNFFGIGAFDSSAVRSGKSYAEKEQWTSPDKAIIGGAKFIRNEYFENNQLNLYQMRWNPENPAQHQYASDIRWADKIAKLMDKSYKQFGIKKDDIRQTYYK
Protocol: The potential inhibitory effect of compounds that bind to AtlE was measured using surface plasmon resonance (SPR). The protein was covalently attached to the surface of the CM5 sensor chip (5200 response units (RU)). The compounds were prepared as 20 mM stock solutions in DMSO and diluted with HEPES running buffer with 2.5% DMSO. Some compounds were less soluble, which was also predicted by the in silico programs and QSAR models for aqueous solubility (see Supplementary Table S3).
The binding of iminosugars was recorded and analyzed using the Biacore T200 3.2.1 software v3.2.1 Evaluation (for results, see Table 1). […] Therefore, for further testing of AtlE binding, the iminosugar derivatives with a lipophilic tail were chosen (1,5-dideoxy-1,5-imino-D-xylitol derivatives (DIX)).
Three compounds, 1, 3 and 8, were identified as AtlE binders. Two of them, 1 and 3, were titrated at eight different concentrations, while compound 8 was titrated firstly at six different concentrations (Figure 4a) and secondly at seven concentrations (Figure S2). The equilibrium dissociation constant KD was estimated using the 1:1 steady-state affinity binding model, with the graphs showing the response units as a function of inhibitor concentration (Figure 4b). […] The maximal theoretical response was calculated using the molecular masses of AtlE and the compounds, respectively. […] Due to the amphiphilicity of the compounds with a hydrophilic sugar unit in the head and a hydrophobic fatty acid residue in the tail, we can assume that both compounds can form oligomeric micelles. To prevent the formation of micelles, we added a surfactant P20 to the running buffer, but the maximum theoretical binding to AtlE was not reached for compounds 1 and 3. This brings into question the true nature of their binding and should be verified by another independent method.
Figure 4 (a) Representative SPR sensorgrams (response curves) and (b) representative saturation curves with evaluated KD for compounds 1, 3 and 8 at different concentrations. SPR analysis of compound 1, 3 and 8 interactions with the immobilized AtlE. Compounds were injected across immobilized AtlE in serial dilutions for 60 s at a rate of […], and the dissociation was followed for 50 s. Sensorgrams are shown along with the apparent equilibrium dissociation constant (KD) determined from the response curves as a function of the compound concentration injected across AtlE. KD values are the mean ± standard deviation of three titrations. The data were fitted to the steady-state affinity binding model.
Surface plasmon resonance (SPR) experiments were performed at 25 °C using a Biacore T200 (Biacore, GE Healthcare, Uppsala, Sweden) instrument with Series S sensor chip CM5 (GE Healthcare). […]

[1] = target: α-Galactosidase (from green coffee beans); conditions: cited from earlier work
[2] = target: β-galactocerebrosidase (GALC); conditions: cited from earlier work
E. coli (ATCC 25922) = assay: Minimal inhibitory concentration, broth microdilution (negative control strain); type: cell-based; conditions: Escherichia coli, ATCC25922; broth microdilution, 20 h at 35 °C; read-out: MIC E. coli ATCC25922
Protocol: (§1) The minimal inhibitory concentrations (MICs) were determined against the bacterial strains S. aureus (ATCC 29213) and E. coli (ATCC 25922), and the results are presented in Table S6.
(§2) Antimicrobial testing was carried out by the broth microdilution method in a 96-well plate format following the CLSI guidelines and European Committee for Antimicrobial Susceptibility Testing (EUCAST) recommendations. Bacterial suspension of a specific bacterial strain equivalent to 0.5 McFarland turbidity standard was diluted with cation-adjusted Mueller Hinton broth to obtain a final inoculum of 10^5 CFU/mL. Compounds dissolved in 20% DMSO and inoculum were mixed together and incubated for 20 h at 35 °C. After incubation, the minimal inhibitory concentration (MIC) values were determined by visual inspection as the lowest dilution of compounds showing no turbidity. The MICs were determined against S. aureus (ATCC 29213) and E. coli (ATCC 25922) bacterial strains. Tetracycline was used as a positive control on every assay plate, showing MICs of 0.5 µg/mL and 1 µg/mL for S. aureus and E. coli, respectively.

[3] = target: human recombinant β-glucocerebrosidase (GBA); conditions: cited from earlier work
S. aureus (ATCC 29213) = assay: Minimal inhibitory concentration, broth microdilution; type: cell-based, Staphylococcus aureus; conditions: for MIC: Staphylococcus aureus, ATCC29213, broth microdilution, 20 h at 35 °C, read-out: MIC S. aureus ATCC29213
Protocol: as §1, §2

[4] = target: β-Glucosidase (from almond); conditions: cited from earlier work
naringinase (Nar) = conditions: cited from earlier work
[5] = target: β-Galactosidase (from bovine liver); conditions: cited from earlier work
[6] = target: α-Glucosidase (from baker's yeast); conditions: cited from earlier work
[7] = pH 6.8, p-nitrophenyl-a-d-galactopyranoside, footnote **
[8] = pH 5.2, footnote **, read-out: IC50 GBA pH 5.2
[9] = pH 7.0, footnote **, read-out: IC50 GBA pH 7.0
[10] = pH 5.0, p-nitrophenyl-b-d-glucopyranoside, footnote **
[11] = pH 7.2, p-nitrophenyl-a-d-glucopyranoside, footnote **

| SMILES | MIC (E. coli (ATCC 25922)) [µM] | IC50 human recombinant β-glucocerebrosidase ([3]; in words) | MIC (S. aureus (ATCC 29213)) [µM] | maximal SPR response compared with the maximal theoretical response (autolysin E (AtlE)) | IC50 [1, 7] [µM] | IC50 ([2]; footnote **) [µM] | IC50 [3, 8] [µM] | IC50 [3, 9] [µM] | IC50 [4, 10] [µM] | IC50 (naringinase (Nar); footnote **) [µM] | IC50 ([5]; footnote **) [µM] | IC50 [6, 11] [µM] | also measured |
| --- | --- | --- | --- | --- | --- | --- | --- | --- | --- | --- | --- | --- | --- |
| OC[C@H]1NC[C@H](O)[C@@H](O)[C@@H]1O [1-deoxynojirimycin, reference compound] |  |  |  |  |  |  |  |  |  |  |  |  | binding of AtlE (SPR) (autolysin E (AtlE); tested at 100 µM and 1 mM): no binding of AtlE; also recorded: did not inhibit AtlE |
| CCCCCCCCCCCCCCN=C1OCC2C(O)C(O)C(O)CN12 (stereo not drawn) [Compound 1] | 125 (≈ 48.1 µg/mL) | low nanomolar range | 8 (≈ 3.08 µg/mL) | higher maximal response than expected; also recorded: higher than expected maximum response |  |  |  |  |  |  |  |  | IC50 ([1]; pH 6.8, p-nitrophenyl-α-D-galactopyranoside, footnote *): > 100 µM; IC50 ([2]; footnote *): > 10 µM; IC50 ([3]; pH 5.2, footnote *, read-out: IC50 GBA pH 5.2): 0.02 ± 0.001 µM; IC50 ([3]; pH 7.0, footnote *, read-out: IC50 GBA pH 7.0): 0.001 ± 0.001 µM; antibacterial activity against S. aureus ATCC 29213 (S. aureus (ATCC 29213); in words): modest antibacterial activities; IC50 ([4]; pH 5.0, p-nitrophenyl-β-D-glucopyranoside, footnote *): 0.7 ± 0.03 µM; IC50 (naringinase (Nar); footnote *): 0.2 ± 0.01 µM; IC50 ([5]; footnote *): 0.1 ± 0.03 µM; IC50 ([6]; pH 7.2, p-nitrophenyl-α-D-glucopyranoside, footnote *): > 100 µM |
| CCCCCCCCCCNC(=N)N1CC(O)C(O)C(O)C1 (stereo not drawn) [Compound 3] | > 500 | low nanomolar range | 500 (≈ 158 µg/mL) | higher maximal response than expected; also recorded: higher than expected maximum response | > 100 | > 10 | 0.09 ± 0.01 | 0.03 ± 0.01 | 26 ± 0.9 | 41.5 ± 0.2 | 2.7 ± 0.2 | > 100 |  |
| CCCCCCCCCCNC(=O)N1CC(O)C(O)C(O)C1 (stereo not drawn) [Compound 8] | > 500 |  | > 500 | achieved the expected maximal theoretical response; also recorded: expected maximum theoretical response was not exceeded | > 100 | > 10 | > 10 | > 10 | > 100 | > 100 | 10.4 ± 0.9 | > 100 | inhibitor of β-glucocerebrosidase ([3]; in words, previous studies): not as an inhibitor of β-glucocerebrosidase; binding of human recombinant β-glucocerebrosidase ([3]; in words): no binding of this enzyme was observed |
